Assay results taken from article PMC7883873, “Discovery of New Catalytic Topoisomerase II Inhibitors for Anticancer Therapeutics” (Frontiers in Oncology, 2021).

How the values were obtained:
[1] = test system: K562, U937, NCI-H82, and NCCIT cancer cells; assay: Co-treatment with paclitaxel or camptothecin, MTS assay; assay type: cell-based; settings: 5-20 µM T60 co-treatment
Experimental: (§1) Cell proliferation rates were measured by using the CellTitre 96 AqueousOne kit (Promega) and bromodeoxyuridine (BrdU) assay kit (Millipore) according to the manufacturer’s protocol as we have described ([51]). Cytotoxicity was evaluated by using the commercial kit (CAT# 8078, ThermoFisher). Culture media was collected and used to measure lactate dehydrogenase (LDH) levels by a colorimetric method following the manufacture’s protocol (ThermoFisher). Cell cycling was assessed by using BrdU incorporation into S-phase DNA by using the APC BrdU flow kit (BD Pharmingen; Franklin Lakes, New Jersey) according to the manufacturer’s protocol. 1 mM of BrdU was added to cells and incubated for 6 h. Cells were incubated with anti-BrdU antibody and stained with 7-AAD before processing the cells for flow cytometry ([52]). Immunoblotting assays followed the standard protocol as we have reported ([51]–[53]).

[2] = test system: AR-v7; assay: Immunoblotting of AR protein levels; assay type: cell-based; settings: LNCaP and LNCaP95 cells, 0-20 µM
Experimental: as §1

[3] = test system: AR full-length (AR-fl); assay: Immunoblotting of AR protein levels; assay type: cell-based; settings: LNCaP and LNCaP95 cells, 0-20 µM
Experimental: as §1

[4] = test system: MR49F; assay: Cell viability, MTS assay; assay type: cell-based; settings: 0-20 µM
Experimental: as §1

[5] = test system: DU145; assay: Cell viability, MTS assay; assay type: cell-based; settings: 0-20 µM; compared to AR-positive PCa cell lines
Experimental: as §1

[6] = test system: LNCaP95; assay: Cell viability, MTS assay; assay type: cell-based; settings: 0-20 µM
Experimental: as §1

[7] = test system: U937 leukemia cells; assay: Cell viability, MTS assay; assay type: cell-based; settings: T60 alone, up to 20 µM
Experimental: as §1

[8] = test system: LNCaP; assay: Cell viability, MTS assay; assay type: cell-based; settings: 0-20 µM
Experimental: as §1

[9] = test system: BPH1; assay: Cell viability, MTS assay; assay type: cell-based; settings: 0-20 µM; compared to AR-positive PCa cell lines
Experimental: as §1

[10] = test system: NCCIT testicular cells; assay: Cell viability, MTS assay; assay type: cell-based; settings: T60 alone, up to 20 µM
Experimental: as §1

[11] = test system: PC3; assay: Cell viability, MTS assay; assay type: cell-based; settings: 0-20 µM; compared to AR-positive PCa cell lines
Experimental: as §1

[12] = molecular target: TOP2B (Homo sapiens, UniProt Q02880); assay: Chromatin fractionation assay; assay type: cell-based; design: endogenous in cells; host or cells: K562 (the thermal shift text says HeLa, the legend says K562); K562 for chromatin fractionation; settings: K562 cells, 0, 1, 20 µM, 24 hours
Sequence of TOP2B (Q02880 2-1626 limits assumed): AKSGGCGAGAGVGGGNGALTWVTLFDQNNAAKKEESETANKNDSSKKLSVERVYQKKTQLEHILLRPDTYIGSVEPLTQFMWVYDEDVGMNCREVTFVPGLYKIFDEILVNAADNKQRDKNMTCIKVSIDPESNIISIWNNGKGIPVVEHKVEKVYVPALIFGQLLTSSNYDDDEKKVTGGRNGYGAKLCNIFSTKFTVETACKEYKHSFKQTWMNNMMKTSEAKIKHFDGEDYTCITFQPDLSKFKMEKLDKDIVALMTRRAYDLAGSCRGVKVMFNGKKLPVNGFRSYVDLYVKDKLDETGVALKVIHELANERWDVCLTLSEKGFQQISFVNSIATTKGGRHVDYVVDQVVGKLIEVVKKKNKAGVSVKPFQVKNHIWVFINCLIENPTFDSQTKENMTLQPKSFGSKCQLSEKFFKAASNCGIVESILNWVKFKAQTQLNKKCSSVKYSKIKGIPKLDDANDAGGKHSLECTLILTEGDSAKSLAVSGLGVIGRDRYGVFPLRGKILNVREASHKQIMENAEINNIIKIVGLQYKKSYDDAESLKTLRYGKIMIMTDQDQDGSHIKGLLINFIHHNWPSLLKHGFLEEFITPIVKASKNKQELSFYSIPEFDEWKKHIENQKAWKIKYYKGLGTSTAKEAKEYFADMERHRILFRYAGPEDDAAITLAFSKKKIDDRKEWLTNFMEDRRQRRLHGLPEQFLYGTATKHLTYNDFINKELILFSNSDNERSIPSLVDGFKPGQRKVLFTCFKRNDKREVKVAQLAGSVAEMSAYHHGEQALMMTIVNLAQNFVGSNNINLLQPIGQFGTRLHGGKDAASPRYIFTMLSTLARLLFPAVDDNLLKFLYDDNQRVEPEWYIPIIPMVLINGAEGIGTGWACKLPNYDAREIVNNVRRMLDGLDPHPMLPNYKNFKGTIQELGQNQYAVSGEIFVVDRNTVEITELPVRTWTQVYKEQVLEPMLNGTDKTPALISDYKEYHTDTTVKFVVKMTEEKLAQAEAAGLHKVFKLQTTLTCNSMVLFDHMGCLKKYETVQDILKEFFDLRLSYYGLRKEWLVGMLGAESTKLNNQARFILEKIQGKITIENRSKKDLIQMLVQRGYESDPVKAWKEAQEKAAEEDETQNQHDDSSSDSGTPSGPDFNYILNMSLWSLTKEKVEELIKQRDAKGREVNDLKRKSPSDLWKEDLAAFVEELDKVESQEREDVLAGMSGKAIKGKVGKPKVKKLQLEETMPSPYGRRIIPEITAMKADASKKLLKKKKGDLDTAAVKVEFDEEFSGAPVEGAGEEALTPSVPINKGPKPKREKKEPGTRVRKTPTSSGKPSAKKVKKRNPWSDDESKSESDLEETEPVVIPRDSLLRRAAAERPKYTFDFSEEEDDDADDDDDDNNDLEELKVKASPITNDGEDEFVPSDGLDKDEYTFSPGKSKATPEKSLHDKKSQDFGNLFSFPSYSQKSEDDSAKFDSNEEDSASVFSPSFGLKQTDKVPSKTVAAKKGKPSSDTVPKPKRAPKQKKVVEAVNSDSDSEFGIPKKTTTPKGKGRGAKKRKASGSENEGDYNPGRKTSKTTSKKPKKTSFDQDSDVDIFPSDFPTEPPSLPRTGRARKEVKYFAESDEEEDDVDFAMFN
Experimental: (§2) In the thermal shift assays, cells were treated with vehicle or T60 for 1 h and split into equal aliquots to be heated at 37 to 46°. Protein lyses were collected to perform immunoblotting assays with TOP2 antibodies (Abcam 12318, Santa Cruz sc-13059 & sc-365071). Our chromatin fractionation assays followed the protocol as previously described (Méndez & Stillman, 2000; Wysocka, Reilly, & Herr, 2001). Briefly, K562 cells (4 × 10 ([7]) cells/ml) were collected and re-suspended in buffer A (10 mM HEPES [pH 7.9], 10 mM KCl, 1.5 mM MgCl2, 0.34 M sucrose, 10% glycerol, 1 mM DTT, and protease inhibitor cocktail), before Triton X-100 was added to final concentration at 0.1%. Cells were then incubated on ice for 10 min, and nuclei were collected by centrifugation at speed of 1,300g for 4 min at 4°C. The nuclei were then washed once with buffer A and then incubated with buffer B (3 mM EDTA, 0.2 mM EGTA, 1 mM DTT, and protease inhibitor cocktail [ROCHE]) for 30 min in ice. Insoluble chromatin was collected by centrifugation at 1,700g for 4 min at 4°C, and washed once with buffer B. Chromatin associated proteins were extracted by incubation with Buffer C [500 mM Tris-HCl (pH 6.8), 500 mM NaCl, and protease inhibitor cocktail (ROCHE)] followed by brief sonication. The supernatant was collected to perform immunoblotting assays with TOP2 antibodies as we have described ([51]–[53]).

[13] = molecular target: T1, TOP2A (Homo sapiens, UniProt P11388); assay: Chromatin fractionation assay; assay type: cell-based; design: endogenous in cells; host or cells: K562 (the thermal shift text says HeLa, the legend says K562); K562 for chromatin fractionation; settings: K562 cells, 0, 1, 20 µM, 24 hours
T1 sequence (P11388 whole entry): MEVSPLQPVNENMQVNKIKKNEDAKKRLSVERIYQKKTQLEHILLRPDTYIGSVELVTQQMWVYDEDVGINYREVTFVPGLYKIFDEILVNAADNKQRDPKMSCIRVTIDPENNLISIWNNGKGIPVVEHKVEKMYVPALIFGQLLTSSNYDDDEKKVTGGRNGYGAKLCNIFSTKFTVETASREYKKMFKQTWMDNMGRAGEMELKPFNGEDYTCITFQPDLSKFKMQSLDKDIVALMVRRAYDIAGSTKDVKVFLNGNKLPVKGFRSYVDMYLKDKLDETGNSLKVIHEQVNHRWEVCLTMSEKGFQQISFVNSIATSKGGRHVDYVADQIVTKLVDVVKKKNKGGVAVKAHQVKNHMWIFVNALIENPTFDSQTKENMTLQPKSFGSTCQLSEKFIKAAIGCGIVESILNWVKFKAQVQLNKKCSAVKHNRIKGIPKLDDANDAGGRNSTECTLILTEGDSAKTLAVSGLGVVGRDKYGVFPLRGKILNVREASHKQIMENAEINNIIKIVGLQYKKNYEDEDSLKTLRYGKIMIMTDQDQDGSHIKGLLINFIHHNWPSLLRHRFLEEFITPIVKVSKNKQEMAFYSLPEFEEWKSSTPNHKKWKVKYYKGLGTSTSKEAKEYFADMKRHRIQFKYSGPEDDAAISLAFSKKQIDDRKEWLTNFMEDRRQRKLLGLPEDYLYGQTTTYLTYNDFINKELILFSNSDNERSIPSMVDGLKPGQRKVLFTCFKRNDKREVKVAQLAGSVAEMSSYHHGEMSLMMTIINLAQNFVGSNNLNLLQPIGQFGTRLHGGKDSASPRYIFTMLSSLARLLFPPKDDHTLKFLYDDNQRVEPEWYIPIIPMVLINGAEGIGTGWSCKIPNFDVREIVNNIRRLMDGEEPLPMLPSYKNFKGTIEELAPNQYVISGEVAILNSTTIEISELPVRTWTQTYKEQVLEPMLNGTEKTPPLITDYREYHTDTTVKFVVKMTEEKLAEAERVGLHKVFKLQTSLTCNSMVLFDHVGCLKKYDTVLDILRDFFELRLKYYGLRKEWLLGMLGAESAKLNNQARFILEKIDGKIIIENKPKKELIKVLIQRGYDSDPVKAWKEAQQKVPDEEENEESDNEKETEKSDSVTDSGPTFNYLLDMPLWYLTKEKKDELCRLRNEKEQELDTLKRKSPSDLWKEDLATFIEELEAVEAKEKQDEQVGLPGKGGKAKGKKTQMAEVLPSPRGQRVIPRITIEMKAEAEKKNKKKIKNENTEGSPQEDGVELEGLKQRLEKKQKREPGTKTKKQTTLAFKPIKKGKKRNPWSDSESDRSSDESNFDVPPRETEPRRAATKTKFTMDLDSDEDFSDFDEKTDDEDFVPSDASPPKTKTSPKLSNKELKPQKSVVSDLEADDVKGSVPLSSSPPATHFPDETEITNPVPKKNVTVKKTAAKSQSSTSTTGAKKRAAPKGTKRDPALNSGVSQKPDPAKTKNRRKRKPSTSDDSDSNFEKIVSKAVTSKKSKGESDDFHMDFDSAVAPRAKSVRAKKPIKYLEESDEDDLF
Experimental: as §2

[14] = molecular target: T1, TOP2A; assay: Relaxation and K-DNA decatenation assays of candidates and T60 derivatives (SAR); assay type: biochemical; design: full-length human TOP2A and TOP2B protein (TopoGEN and Inspiralis respectively); purchased TopoGEN TG1001 (human TOP2 assay kit); settings: compared with T60
Experimental: The human TOP2 assay kit (#TG1001, TopoGEN, Buena Vista, CO) and TOP2B (HTB205, Inspiralis, UK) were used for K-DNA decatenation assays. […] The reaction was incubated at 37C for 2 h after which 4 µl stop solution (5× buffer is 5% Sarkosyl, 0.125% bromophenol blue, 25% glycerol) was added. The reaction was resolved by electrophoresis on a 0.8% agarose gel at 60 V and stained with 0.5 µg/ml ethidium bromide for 15 min. DNA bands were visualized using a gel imager (Gel Doc™ EZ System) and quantified using the Image Studio™ Lite Quantification Software.
The human TOP2A and TOP2B were used to perform DNA relaxation assays. […] The reaction was incubated at 37C for 2 h and stopped by adding 2 µl of 10% SDS and 1 µl of 250 mM of EDTA, followed by the addition of 50 µg/ml of proteinase K at 45 C for 1 h. The reaction was then resolved by electrophoresis on a 1% agarose gel at 80 V and stained with 0.5 µg/ml ethidium bromide for 15 min. DNA bands were visualized using a gel imager (Gel Doc™ EZ System) and quantified using the Image Studio™ Lite Quantification Software.

[15] = test system: HeLa cells; assay: FACS cell cycle assay; assay type: cell-based; settings: 20 µM, 48 h
Experimental: as §1

[16] = test system: AR target genes such as PSA and FKBP5; assay: Real-time PCR of AR target genes; assay type: cell-based; settings: LNCaP and LNCaP95 cells, 0-20 µM, −/+10nM DHT
[17] = test system: HeLa cells; assay: BrdU incorporation assay; assay type: cell-based; settings: 20 µM, 48 h
Experimental: as §1

Compound: O=C(Nc1ccc(Nc2ccccc2)cc1)c1ccc[nH]c1=S [T60]
- Effect on effectiveness of paclitaxel and camptothecin in suppressing cancer cell growth [1]: enhanced the effectiveness of these drugs
- Protein levels of AR-v7 [2]: inhibited the protein levels
- Protein levels of AR full-length [3]: inhibited the protein levels
- Cell viability, MR49F [4]: strongly suppressed
- Cell viability, DU145 [5]: to a much less extent
- Cell viability, LNCaP95 [6]: strongly suppressed
- Inhibition of cell growth, U937 [7]: completely inhibited
- Cell viability, LNCaP [8]: strongly suppressed
- Cell viability, BPH1 [9]: to a much less extent
- Inhibition of cell growth, NCCIT [10]: 50%
- Cell viability, PC3 [11]: to a much less extent
- TOP2B association with chromatin [12]: reduced
- TOP2A association with chromatin [13]: reduced
- Activity on TOP2 [14]: less active
- Cell cycle distribution [15]: reduced at the G1 phase, but accumulated at S and G2/M phases
- mRNA expression of AR target genes (PSA, FKBP5) [16]: inhibited mRNA expression of AR target genes
- DNA replication (BrdU incorporation) [17]: reduced DNA replication
